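The compound was tested at five concentrations on cells cultured in 96-well plates, with a 48-hour exposure period. GI50: concentration for 50% inhibition of growth.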 Calls of active or inactive are those of the source. Cut-off read from the data, not from the text of the source: active = GI50 up to about 1.1 µM and inactive = higher.
How the values were obtained:
Assay in all cases: NCI tumour cell line growth inhibition, 48 h
PC-3 = test system: PC-3
KM12 = test system: KM12
RPMI-8226 = test system: RPMI-8226
NCI-H226 = test system: NCI-H226
ACHN = test system: ACHN
MDA-N = test system: MDA-N
TK-10 = test system: TK-10
NCI-H23 = test system: NCI-H23
OVCAR-8 = test system: OVCAR-8
SF-539 = test system: SF-539
SR = test system: SR
A498 = test system: A498
HCC 2998 = test system: HCC 2998
MDA-MB-435 = test system: MDA-MB-435
NCI-H522 = test system: NCI-H522
HOP-62 = test system: HOP-62
MCF7 = test system: MCF7
CAKI-1 = test system: CAKI-1
SNB-75 = test system: SNB-75
OVCAR-3 = test system: OVCAR-3

SMILES	GI50 (PC-3)	GI50 (KM12)	GI50 (RPMI-8226)	GI50 (NCI-H226)	GI50 (ACHN)	GI50 (MDA-N)	GI50 (TK-10)	GI50 (NCI-H23)	GI50 (OVCAR-8)	GI50 (SF-539)	GI50 (SR)	GI50 (A498)	GI50 (HCC 2998)	GI50 (MDA-MB-435)	GI50 (NCI-H522)	GI50 (HOP-62)	GI50 (MCF7)	GI50 (CAKI-1)	GI50 (SNB-75)	GI50 (OVCAR-3)
CCN(CC)CCC(=O)N1C/C(=C/c2ccccc2)C(=O)/C(=C\c2ccccc2)C1	1.06 µM (active)	0.541 µM (active)	0.114 µM (active)	5.32 µM (inactive)	2.78 µM (inactive)	0.865 µM (active)	6.58 µM (inactive)	1.42 µM (inactive)	1.35 µM (inactive)	3.83 µM (inactive)	0.344 µM (active)	3.96 µM (inactive)	0.706 µM (active)	1.7 µM (inactive)	0.746 µM (active)	13.2 µM (inactive)	0.372 µM (active)	2.3 µM (inactive)	4.08 µM (inactive)	3.06 µM (inactive)
O=c1nc2n(CCO)c(-c3ccccc3)c(-c3ccccc3)nc-2c(=O)[nH]1	> 100 µM (inactive)	> 100 µM (inactive)	> 100 µM (inactive)	> 100 µM (inactive)	> 100 µM (inactive)	> 100 µM (inactive)	> 100 µM (inactive)	> 100 µM (inactive)	> 100 µM (inactive)	> 100 µM (inactive)	40.6 µM (inactive)	> 100 µM (inactive)	> 100 µM (inactive)	> 100 µM (inactive)	> 100 µM (inactive)	> 100 µM (inactive)	> 100 µM (inactive)	> 100 µM (inactive)	> 100 µM (inactive)	> 100 µM (inactive)
CCCCc1ccc(-n2c(C)c(COC(=O)NC)c(COC(=O)NC)c2C)cc1	10.9 µM (inactive)	12.7 µM (inactive)	4.47 µM (inactive)	1.05 µM (active)	2.11 µM (inactive)	13.2 µM (inactive)	2.28 µM (inactive)	7.28 µM (inactive)	4.16 µM (inactive)	4.37 µM (inactive)	0.818 µM (active)	1.1 µM (active)	12.7 µM (inactive)	12.5 µM (inactive)	2.64 µM (inactive)	8.97 µM (inactive)	4.76 µM (inactive)	2.86 µM (inactive)	7.73 µM (inactive)	12.1 µM (inactive)
COc1ccc(Nc2c(C#N)c3n(c4ccccc24)c2ccccc2[n+]3C)cc1OC	2.33 µM (inactive)	3.98 µM (inactive)	1.98 µM (inactive)	3.05 µM (inactive)	1.96 µM (inactive)	2.7 µM (inactive)	2.56 µM (inactive)	2.94 µM (inactive)	1.67 µM (inactive)	1.84 µM (inactive)	6.46 µM (inactive)	4.31 µM (inactive)	4.17 µM (inactive)	3.73 µM (inactive)	3.16 µM (inactive)	3.24 µM (inactive)	1.99 µM (inactive)	1.93 µM (inactive)	3.43 µM (inactive)	3.52 µM (inactive)
CCCN(C(=O)c1c(Cl)nnc(Cl)c1C(=O)c1cc(Cl)nnc1Cl)c1cc(Cl)nnc1Cl	6.61 µM (inactive)	11.5 µM (inactive)	3.65 µM (inactive)	18.5 µM (inactive)	12.9 µM (inactive)	6.7 µM (inactive)	18 µM (inactive)	5.77 µM (inactive)	2.29 µM (inactive)	7.28 µM (inactive)	3.08 µM (inactive)	15.5 µM (inactive)	16.9 µM (inactive)	6.03 µM (inactive)	3.24 µM (inactive)	19 µM (inactive)	4.49 µM (inactive)	7.23 µM (inactive)	15.3 µM (inactive)	10.9 µM (inactive)
